Values after ≈ are worked out from the molar mass of the structure shown.
Legend:
[1] = test system: LoVo (human colon adenocarcinoma); assay: in vitro cytotoxicity (colony growth inhibition) against LoVo cells; assay type: cell-based; conditions: concentration inhibiting by 50% colony growth, tested as hydrochlorides
Protocol: (§1) All compounds were tested as their hydrochlorides.

LoVo/DX cells = assay: in vitro cytotoxicity (colony growth inhibition) against LoVo/DX cells; assay type: cell-based, human; conditions: for R.I. = Resistance Index = (IC50 LoVo/DX)/(IC50 LoVo): ratio of IC50 LoVo/DX to IC50 LoVo; for Cytotoxicity after 4h of treatment (IC50) LoVo/DX: concentration inhibiting by 50% colony growth, tested as hydrochlorides
Protocol: as §1

in vivo [2] = conditions: mouse, in vivo, iv
Protocol: (§2) The biological activity of the compounds according to the invention was tested in vitro against LoVo (human colon adenocarcinoma) and LoVo/DX cells in comparison with doxorubicin. The compounds of the invention were also tested in vivo against P388 and P388/DX murine leukemia in comparison with doxorubicin. All compounds were tested as their hydrochlorides.

P388 = assay: in vivo; conditions: for %T/C (Median survival time of treated mice/median survival time of controls x 100): P388 (iv, iv+1), at optimal dose
Protocol: as §2

in vivo [3] = conditions: mouse, in vivo, iv; remark: listed apart in the source
Protocol: as §2

P388/DX Johnson = assay: in vivo; conditions: for %T/C (Median survival time of treated mice/median survival time of controls x 100): P388/DX Johnson (iv, iv+1), at optimal dose
Protocol: as §2

COc1cccc2c1C(=O)c1c(O)c3c(c(O)c1C2=O)C[C@@](O)(C(=O)CO)C[C@@H]3O[C@H]1C[C@H](N)[C@H](O)[C@H](C)O1 [Doxorubicin, reference compound]
IC50 ([1]; Homo sapiens, LoVo, 4h of treatment, read-out: Cytotoxicity after 4h of treatment (IC50) LoVo): 0.06 µg/mL (≈ 0.11 µM)
R.I. = Resistance Index = (IC50 LoVo/DX)/(IC50 LoVo) (LoVo/DX cells): 36
MTD (in vivo [2]): 13 mg/kg
%T/C (Median survival time of treated mice/median survival time of controls x 100) (P388): 250%
MTD (in vivo [3]): 13 mg/kg
%T/C (Median survival time of treated mice/median survival time of controls x 100) (P388/DX Johnson): 100%

C[C@@H]1O[C@@H](O[C@H]2C[C@](O)(C(=O)CO)Cc3c2cc2c(c3O)C(=O)c3cccc(O)c3C2=O)C[C@H](N2CCOCC2)[C@@H]1O [Ia, 4-demethyl-6-deoxy-3′-deamino-3′-(4-morpholinyl) doxorubicin]
Cytotoxicity after 4h of treatment (IC50) LoVo [1]: 0.0355 µg/mL
Cytotoxicity after 4h of treatment (IC50) LoVo/DX (LoVo/DX cells): 0.1654 µg/mL
R.I. = Resistance Index = (IC50 LoVo/DX)/(IC50 LoVo) (LoVo/DX cells): 4.7
%T/C (Median survival time of treated mice/median survival time of controls x 100) (P388): 222%
%T/C (Median survival time of treated mice/median survival time of controls x 100) (P388/DX Johnson): 183%

CC(=O)[C@]1(O)Cc2c(O)c3c(c(O)c2[C@@H](O[C@H]2C[C@H](N4CCOCC4)[C@H](O)[C@H](C)O2)C1)C(=O)c1c(N)cccc1C3=O [Ib, 4-demethoxy-4-amino-3′-deamino-3′-(4-morpholinyl)-daunorubicin]
Cytotoxicity after 4h of treatment (IC50) LoVo [1]: 0.0137 µg/mL
Cytotoxicity after 4h of treatment (IC50) LoVo/DX (LoVo/DX cells): 0.0285 µg/mL
R.I. = Resistance Index = (IC50 LoVo/DX)/(IC50 LoVo) (LoVo/DX cells): 2.1
%T/C (Median survival time of treated mice/median survival time of controls x 100) (P388): 156%
%T/C (Median survival time of treated mice/median survival time of controls x 100) (P388/DX Johnson): 167%

CC(=O)[C@]1(O)Cc2c(O)c3c(c(O)c2[C@@H](O[C@H]2C[C@H](N4CCOCC4)[C@@H](O)[C@H](C)O2)C1)C(=O)c1c(N)cccc1C3=O [Ic, 4-demethoxy-4-amino-3′-deamino-3′-(4-morpholinyl)-4′-epi-daunorubicin]
Cytotoxicity after 4h of treatment (IC50) LoVo [1]: 0.036 µg/mL
Cytotoxicity after 4h of treatment (IC50) LoVo/DX (LoVo/DX cells): 0.0485 µg/mL
R.I. = Resistance Index = (IC50 LoVo/DX)/(IC50 LoVo) (LoVo/DX cells): 1.3
MTD (in vivo [3]): 20 mg/kg
%T/C (Median survival time of treated mice/median survival time of controls x 100) (P388/DX Johnson): 195%

CC(=O)[C@]1(O)Cc2c(O)c3c(c(O)c2[C@@H](O[C@H]2C[C@H](N4CCOCC4)[C@@H](O)[C@H](C)O2)C1)C(=O)c1c(F)cccc1C3=O [Ie, 4-demethoxy-4-fluoro-3′-deamino-3′-(4-morpholinyl)-4′-epi-daunorubicin]
Cytotoxicity after 4h of treatment (IC50) LoVo [1]: 0.047 µg/mL
Cytotoxicity after 4h of treatment (IC50) LoVo/DX (LoVo/DX cells): 0.168 µg/mL
R.I. = Resistance Index = (IC50 LoVo/DX)/(IC50 LoVo) (LoVo/DX cells): 3.6
MTD (in vivo [2]): 6.3 mg/kg
%T/C (Median survival time of treated mice/median survival time of controls x 100) (P388): 411%
MTD (in vivo [3]): 6.3 mg/kg
%T/C (Median survival time of treated mice/median survival time of controls x 100) (P388/DX Johnson): 244%

COC1CN(C2CC(OC3CC(O)(C(C)=O)Cc4c(O)c5c(c(O)c43)C(=O)c3ccccc3C5=O)OC(C)C2O)CCO1 (centres unmarked) [Il, 4-demethoxy-3′-deamino-3′-(2-methoxy-4-morpholinyl)-daunorubicin]
Cytotoxicity after 4h of treatment (IC50) LoVo [1]: 0.0002 µg/mL
Cytotoxicity after 4h of treatment (IC50) LoVo/DX (LoVo/DX cells): 0.0023 µg/mL
R.I. = Resistance Index = (IC50 LoVo/DX)/(IC50 LoVo) (LoVo/DX cells): 11.5
%T/C (Median survival time of treated mice/median survival time of controls x 100) (P388): 133%
O.D. (Optimal dose: maximum tolerated dose (LD10)) (P388; P388 (iv, iv+1): tumor implanted intravenously, treatment begins one day after implantation): 0.14 mg/kg
%T/C (Median survival time of treated mice/median survival time of controls x 100) (P388/DX Johnson): 161%
O.D. (Optimal dose: maximum tolerated dose (LD10)) (P388/DX Johnson; P388/DX Johnson (iv, iv+1): tumor implanted intravenously, treatment begins one day after implantation): 0.36 mg/kg
